# According to patent EP2431041A1, “PHARMACEUTICAL COMPOSITION FOR TREATING CARDIOVASCULAR DISORDER AND USE THEREOF” (Chengdu Kanghong Pharmaceutical Co., Ltd., priority 2009, dated 2010):
# What was measured:
# [1] = system: rat with an acute myocardial ischemia caused by PIT; experiment: rat myocardial ischemia caused by pituitrin (PIT), ST segment of ECG (Test Example 5); assay type: in vivo, SD rats; conditions: for ΔST Σ: sum of ST segment shift; for ΔST 10 sec / ΔST 30 sec / ΔST 1 min / ΔST 2 min / ΔST 4 min / ΔST 6 min / ΔST 8 min / ΔST 10 min / ΔST 13 min / ΔST 15 min: time after PIT injection
# Protocol: Each animal in all groups was intragastrically administered with the corresponding drug at a volume of 10 ml/kg, for 7 successive days. The rat was injected intraperitoneally with 1% sodium pentobarbital (30 mg/kg) 100 min after the final administration. When anesthetized, the animal was immobilized onto a frog board and subjected to trace of normal electrocardiogram over 2 min with Lead II. Then, PIT (1.5 IU/kg) was injected slowly over 20 s into the rat through its tail vein. The changes in the electrocardiogram were traced in 15 min after PIT injection. The data from the ST segment were collected at the time-points of 10 s, 30 s, 1 min, 2 min, 4 min, 6 min, 8 min, 10 min, 13 min, and 15 min. ST segment shifts at the various time-points after modeling were compared.
# [2] = system: Beagle canines; experiment: long-term toxicity test in canine (21 days): ALT in blood and other indices; assay type: in vivo; conditions: intragastric once per day
# Description: Animals: Conventional, healthy adult Beagle canines, evenly composed of males and females, 6-8 month-old, body weight of 9 - 11 kg.
# Medicaments: Z01 (echinocystic acid:oleanolic acid = 3:1, prepared by the method in Example 4, in which the total content of the echinocystic acid and the oleanolic acid is 99%), in-house-made off-white tablet, Lot number: 090205; Z02 (echinocystic acid:oleanolic acid = 1:1, prepared by the method in Example 1, in which the amount of echinocystic acid and oleanolic acid accounts to 94.2% of the amount of the extract), in-house-made off-white tablet, Lot number: 090206; in-house-made echinocystic acid EA (containing 98.5% of echinocystic acid), pure-white powder, Lot number: 090107; physiological saline, colorless clarified liquid, provided by Chengdu QingShan LiKang Pharmarceutical co., Ltd., Lot number: A0803025; Alanine Transarninase (ALT) Kit, provided by Sichuan MiKe Science & Technology Co., Ltd., Lot number: 1007071.
# Major instruments: a fully automated blood biochemistry analyzer (Roche Integra 400 Plus, Switzerland), a fully automated hematology analyzer (Abbott CELL-DYN 3700SL, USA), a fully automated blood coagulation analyzer (SYSMEX CA-500, Japan), a four-channel physiological recording system (RM6240, Chengdu Instrument Factory, China), electronic balance, etc.
# Procedure: The normal Beagle canines were subjected to quanrantine for two weeks and a dog with abnormal parameters was rejected. The selected dogs were assigned randomly into ten groups: blank control group, low dose Z01 group (the dosage of echinocystic acid, 50 mg/kg), medium dose Z01group (the dosage of echinocystic acid, 150 mg/kg), high dose Z01 group (the dosage of echinocystic acid, 250 mg/kg), Z02 low dose group (the dosage of echinocystic acid, 50 mg/kg), medium dose Z02 group (the dosage of echinocystic acid, 150 mg/kg), high dose Z02 group (echinocystic acid is 250 mg/kg), low dose EA group (50mg/kg), medium dose EA group (150mg/kg), high dose EA group (250mg/kg), with 8 animals per group evenly composed of males and females. All of the dogs in individual groups were intragastrically administered at a volume of 10 ml/kg, once per day and successively for 21 days. Prior to and at Day 21 after the administration, samples of urine excreted naturally in the morning and blood from forelimb vein were collected respectively for urine routine, blood routine, and coagulation-time determination, meanwhile the lead II electrocardiogram was traced. Prior to the administration and at Day 4, Day 7, Day 14, and Day 21 after the first administration, blood samples were collected from the canine forelimb vein and assayed on the biochemical indicator associated with liver function. In twenty-four hours after the final administration, the animals in each group were dissected, autopsied systematically and observed with naked eyes. The parenchymal organs were weighed, subjected to calculation of organ coefficients, and examined histopathologically. […] Pathologic results were descriptively discussed.
# [3] = system: rabbit with lipid disorders; experiment: lipid disorders in rabbit, serum TC and TG (Test Example 8); assay type: in vivo, Japanese white rabbit
# Description: Procedure: Animals were subjected to acclimation feeding for 10 days. […] After raised with the feed for 15 days, the animals were subjected to blood sampling from central ear artery while fasting. The sera were separated and analyzed for various blood lipid indices. From 40 animals raised with the high-fat feed, 30 animals were selected on the basis of TC content and assigned into five groups by randomized block design with six animals per group; six animals raised with the basal feed were used as the blank control group. […] Administration lasted for 4 weeks. […] ANOVA of randomized block design was used for comparisons among multiple groups, and SNK-q test was used for comparisons between two groups.
# Blood samples were collected from the fasting animals in each of the groups of the experiment prior to the administration and in 24 h after the final administration and assayed for the content of total cholesterol (TC) and triglyceride (TG). Table 11 Effect of the drugs in each of the groups on serum TC and TG levels ( x ± s, n =6).
# [4] = EA 50.8 mg/kg intragastric 7 days
# [5] = echinocystic acid content 50 mg/kg
# [6] = echinocystic acid content 150 mg/kg
# [7] = echinocystic acid content 250 mg/kg
# [8] = EA 12.2 mg/kg intragastric 4 weeks
# [9] = OA 17.0 mg/kg intragastric 7 days
# [10] = OA 4.0 mg/kg intragastric 4 weeks
smiles,measurement,setting,value
"CC1(C)CC[C@]2(C(=O)O)[C@H](O)C[C@]3(C)C(=CC[C@@H]4[C@@]5(C)CC[C@H](O)C(C)(C)[C@@H]5CC[C@]43C)[C@@H]2C1 [EA, echinocystic acid]",ΔST Σ,[1]; [4],0.653± 0.367 mV
same,ΔST 10 sec,[1]; [4],0.089± 0.089 mV
same,ΔST 30 sec,[1]; [4],0.060± 0.053 mV
same,ΔST 1 min,[1]; [4],0.064± 0.032 mV
same,ΔST 2 min,[1]; [4],0.075± 0.063 mV
same,ΔST 4 min,[1]; [4],0.060± 0.039 mV
same,ΔST 6 min,[1]; [4],0.063± 0.045 mV
same,ΔST 8 min,[1]; [4],0.070± 0.048 mV
same,ΔST 10 min,[1]; [4],0.061± 0.042 mV
same,ΔST 13 min,[1]; [4],0.055± 0.039 mV
same,ΔST 15 min,[1]; [4],0.056± 0.048 mV
same,"ALT at different time-points after administration, Day 4",[2]; [5],41.4±9.3 U/L
same,"ALT at different time-points after administration, Day 7",[2]; [5],60.3±11.6 U/L
same,"ALT at different time-points after administration, Day 14",[2]; [5],58.3±9.1 U/L
same,"ALT at different time-points after administration, Day 21",[2]; [5],69.7±6.2 U/L
same,"ALT, Prior to administration",[2]; [5],38.8±5.8 U/L
same,"ALT at different time-points after administration, Day 4",[2]; [6],42.6±8.9 U/L
same,"ALT at different time-points after administration, Day 7",[2]; [6],70.6±22.3 U/L
same,"ALT at different time-points after administration, Day 14",[2]; [6],121.3±19.3 U/L
same,"ALT at different time-points after administration, Day 21",[2]; [6],124.5±35.3 U/L
same,"ALT, Prior to administration",[2]; [6],40.3±6.2 U/L
same,"ALT at different time-points after administration, Day 4",[2]; [7],45.4±9.9 U/L
same,"ALT at different time-points after administration, Day 7",[2]; [7],146.5±49.0 U/L
same,"ALT at different time-points after administration, Day 14",[2]; [7],167.5±43.3 U/L
same,"ALT at different time-points after administration, Day 21",[2]; [7],151.3±86.6 U/L
same,"ALT, Prior to administration",[2]; [7],37.3±5.2 U/L
same,Serum TC After administration,[3]; [8],9.77 ± 6.30 mmol/L
same,Serum TC prior to administration,[3]; [8],15.07 ± 5.48 mmol/L
same,Serum TG After administration,[3]; [8],1.64 ± 0.89 mmol/L
same,Serum TG prior to administration,[3]; [8],2.17 ± 1.04 mmol/L
"CC1(C)CC[C@]2(C(=O)O)CC[C@]3(C)C(=CC[C@@H]4[C@@]5(C)CC[C@H](O)C(C)(C)[C@@H]5CC[C@]43C)[C@@H]2C1 [OA, oleanolic acid]",ΔST Σ,[1]; [9],0.739± 0.408Δ mV
same,ΔST 10 sec,[1]; [9],0.132± 0.113 mV
same,ΔST 30 sec,[1]; [9],0.068± 0.044 mV
same,ΔST 1 min,[1]; [9],0.079± 0.052 mV
same,ΔST 2 min,[1]; [9],0.061± 0.034 mV
same,ΔST 4 min,[1]; [9],0.082± 0.055 mV
same,ΔST 6 min,[1]; [9],0.080± 0.067 mV
same,ΔST 8 min,[1]; [9],0.073± 0.037 mV
same,ΔST 10 min,[1]; [9],0.051± 0.032 mV
same,ΔST 13 min,[1]; [9],0.060± 0.037 mV
same,ΔST 15 min,[1]; [9],0.053± 0.042 mV
same,Serum TC After administration,[3]; [10],12.05 ± 6.48 mmol/L
same,Serum TC prior to administration,[3]; [10],14.97 ± 5.22 mmol/L
same,Serum TG After administration,[3]; [10],1.83 ± 1.02 mmol/L
same,Serum TG prior to administration,[3]; [10],2.06 ± 0.44 mmol/L
